Consider three compounds from ChEMBL document CHEMBL3227918, “Synthesis and pharmacological evaluation of cis-3,4,4a,9a-tetrahydro-1H-pyrano[3,4-b]benzofuran-1-ones. Tricyclic analogues related to the antilipidemic drug clofibrate” (J Med Chem, 1979).

The test system of data set [1] is Rattus norvegicus. Kind of data set: Antilipidemic activity against Sprague-Dawley rat assessed as liver cholesterol level per gram of tissue at 0.4 mmol/kg, po twice daily for 7 days (reference value: 2.96 +/- 0.42 mg). The data set is classed as functional.
Data set [2] relates to Rattus norvegicus. The data set is described as follows: Antilipidemic activity against Sprague-Dawley rat assessed as liver triglyceride level per gram of tissue at 0.4 mmol/kg, po twice daily for 7 days (reference value: 3.87 +/- 0.59 mg). Type of data set: functional.
Data set [3] concerns the target T1, 3-hydroxy-3-methylglutaryl-coenzyme A reductase (Rattus norvegicus) (UniProt P51639).
T1 sequence (whole entry): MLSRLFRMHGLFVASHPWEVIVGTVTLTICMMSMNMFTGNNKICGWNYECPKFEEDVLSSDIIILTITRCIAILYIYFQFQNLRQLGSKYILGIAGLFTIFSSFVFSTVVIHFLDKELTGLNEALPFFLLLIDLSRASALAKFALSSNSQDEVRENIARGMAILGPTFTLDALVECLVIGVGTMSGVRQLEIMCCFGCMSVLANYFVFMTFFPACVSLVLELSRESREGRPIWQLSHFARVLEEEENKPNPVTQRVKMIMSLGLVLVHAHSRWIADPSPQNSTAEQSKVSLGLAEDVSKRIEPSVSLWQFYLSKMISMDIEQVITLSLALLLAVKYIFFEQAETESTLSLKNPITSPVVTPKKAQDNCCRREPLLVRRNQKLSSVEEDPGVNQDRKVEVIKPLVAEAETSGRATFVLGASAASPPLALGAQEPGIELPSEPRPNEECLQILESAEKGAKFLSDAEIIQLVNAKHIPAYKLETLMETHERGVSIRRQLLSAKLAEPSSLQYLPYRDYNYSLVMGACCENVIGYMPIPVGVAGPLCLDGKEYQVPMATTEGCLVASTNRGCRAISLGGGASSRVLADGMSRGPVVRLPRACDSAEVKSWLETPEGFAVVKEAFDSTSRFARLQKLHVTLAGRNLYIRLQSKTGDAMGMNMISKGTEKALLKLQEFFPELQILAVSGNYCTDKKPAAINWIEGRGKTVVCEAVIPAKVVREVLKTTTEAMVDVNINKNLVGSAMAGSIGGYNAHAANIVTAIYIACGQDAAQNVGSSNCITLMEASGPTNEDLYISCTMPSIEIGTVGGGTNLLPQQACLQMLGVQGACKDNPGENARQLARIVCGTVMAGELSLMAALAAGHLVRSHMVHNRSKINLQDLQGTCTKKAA
Kind of data set: Inhibition of Sprague-Dawley rat liver microsome HMG-CoA reductase activity assessed as mevalonic acid formation form DL-3-hydroxy-3-methylglutaryl[3-14C]coenzyme by scintillation counting (reference value: 13.2 +/- 3.30 nmol/mg/h).

Data set [4] deals with Rattus norvegicus. The data set is described as follows: Antilipidemic activity against Sprague-Dawley rat assessed as increase in liver to body weight at 0.4 mmol/kg, po twice daily for 7 days (reference value: 3.96 +/- 0.20 mg/g). Type of data set: functional.
Data set [5] deals with Rattus norvegicus. The data set is described as follows: Effect on liver weight in Sprague-Dawley rat at 0.4 mmol/kg, po twice daily for 7 days (reference value: 11.8 +/- 0.93 g). Particulars: in vivo, 168 h. The data set is classed as ADME, organism-based.
For data set [6], the system named is Rattus norvegicus. Kind of data set: Effect on microsomal protein content in Sprague-Dawley rat at 0.4 mmol/kg, po twice daily for 7 days (reference value: 25.8 +/- 1.17 mg/g). The data set is classed as functional.
Data set [7] concerns Rattus norvegicus. Kind of data set: Antilipidemic activity against Sprague-Dawley rat assessed as increase in liver ethylmorphine N-demethylase activity measured as HCHO formation per mg/min at 0.4 mmol/kg, po twice daily for 7 days (reference value: 6.48 +/- 0.70 nmol). Type of data set: functional.
The test system of data set [8] is Rattus norvegicus. Kind of data set: Antilipidemic activity against Sprague-Dawley rat assessed as increase in liver NADPH:cyt c reductase activity at 0.4 mmol/kg, po twice daily for 7 days (reference value: 164 +/- 16.7 nmol/mg/min). The data set is classed as functional.
Data set [9] concerns Rattus norvegicus. Kind of data set: Antilipidemic activity against Sprague-Dawley rat assessed as increase in liver cyt b activity measured per mg of protein at 0.4 mmol/kg, po twice daily for 7 days (reference value: 0.310 +/- 0.052 nmol). Type of data set: functional.
Data set [10] deals with Rattus norvegicus. Kind of data set: Antilipidemic activity against Sprague-Dawley rat assessed as increase in liver cyt P-450 activity measured per mg of protein at 0.4 mmol/kg, po twice daily for 7 days (reference value: 0.833 +/- 0.0644 nmol). The data set is classed as functional.

Consider `C[C@@]12Oc3ccc(Cl)cc3[C@@H]1CCOC2=O` (relative stereo), for which the Activity came out at 3.19 mg in the data set on Rattus norvegicus [1]; 7.75 mg in the data set with Rattus norvegicus [2]; 8.2 nmol/mg/h in [3]; 4.56% in the data set with Rattus norvegicus [4]; 14.1 g with Rattus norvegicus [5]; 31.9 mg/g in the data set with Rattus norvegicus [6]. Besides, the Activity in the data set with Rattus norvegicus [7] amounted to 11.1 nmol; in the data set on Rattus norvegicus [8], 315 nmol/mg/min; with Rattus norvegicus [9] it was 0.421 nmol; in the data set on Rattus norvegicus [10], 1.62 nmol.

As to `O=C1OCC[C@H]2c3cc(Cl)ccc3O[C@@H]12` (relative stereo), the Activity with Rattus norvegicus [1] came to 2.93 mg; with Rattus norvegicus [2], 5.66 mg; in [3], 11 nmol/mg/h; in the data set on Rattus norvegicus [4] it was 4.03%; in the data set with Rattus norvegicus [5], 12.1 g; with Rattus norvegicus [6], 25.2 mg/g. Also, the Activity in the data set with Rattus norvegicus [7] worked out at 7.96 nmol; in the data set on Rattus norvegicus [8] it was 210 nmol/mg/min; in the data set with Rattus norvegicus [9], 0.292 nmol; in the data set on Rattus norvegicus [10], 0.962 nmol.

Consider `CCOC(=O)C(C)(C)Oc1ccc(Cl)cc1` [CLOFIBRATE], for which the Activity in the data set with Rattus norvegicus [1] worked out at 2.59 mg; in the data set with Rattus norvegicus [2], 4.65 mg; in data set [3] it was 11.3 nmol/mg/h; with Rattus norvegicus [4], 4.84%; in the data set with Rattus norvegicus [5], 15.1 g; in the data set on Rattus norvegicus [6], 29 mg/g. Moreover, the Activity in the data set on Rattus norvegicus [7] came out at 7.82 nmol; in the data set on Rattus norvegicus [8], 246 nmol/mg/min; in the data set on Rattus norvegicus [9], 0.293 nmol; in the data set on Rattus norvegicus [10], 1.06 nmol.
